Test results reported in PubChem BioAssay (NCI).
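A five-concentration, 48-hour dose response in 96-well plates underlies each endpoint, interpolated linearly between surrounding concentrations. TGI denotes the concentration required for complete inhibition of growth.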

Experiments:
Experiment in all cases: NCI-60 cell line screen, 48 h
SK-MEL-5 melanoma = system: SK-MEL-5 melanoma
M14 melanoma = system: M14 melanoma
OVCAR-5 ovarian = system: OVCAR-5 ovarian
SK-OV-3 ovarian = system: SK-OV-3 ovarian
HT29 colon = system: HT29 colon
HOP-92 NSCLC = system: HOP-92 NSCLC
NCI-H226 lung = system: NCI-H226 lung
A549 NSCLC = system: A549 NSCLC
COLO 205 colon = system: COLO 205 colon
PC-3 prostate = system: PC-3 prostate
SK-MEL-28 melanoma = system: SK-MEL-28 melanoma
RXF 393 renal = system: RXF 393 renal
CAKI-1 renal = system: CAKI-1 renal
SF-539 CNS = system: SF-539 CNS
SR leukemia = system: SR leukemia
SF-268 CNS = system: SF-268 CNS
HS 578T breast = system: HS 578T breast
UACC-257 melanoma = system: UACC-257 melanoma
TK-10 renal = system: TK-10 renal
NCI-H460 lung = system: NCI-H460 lung
BT-549 breast = system: BT-549 breast
NCI-H23 lung = system: NCI-H23 lung
SF-295 CNS = system: SF-295 CNS
K-562 leukemia = system: K-562 leukemia
DU-145 prostate = system: DU-145 prostate
MCF7 breast = system: MCF7 breast
MOLT-4 leukemia = system: MOLT-4 leukemia
A498 renal = system: A498 renal
IGROV1 ovarian = system: IGROV1 ovarian
T-47D breast = system: T-47D breast
SN12C renal = system: SN12C renal
HL-60(TB) leukemia = system: HL-60(TB) leukemia
EKVX NSCLC = system: EKVX NSCLC
MALME-3M melanoma = system: MALME-3M melanoma
NCI-H522 lung = system: NCI-H522 lung
KM12 colon = system: KM12 colon
OVCAR-4 ovarian = system: OVCAR-4 ovarian
U251 CNS = system: U251 CNS
HOP-62 NSCLC = system: HOP-62 NSCLC
HCT-15 colon = system: HCT-15 colon
786-0 renal = system: 786-0 renal
MDA-N = system: MDA-N
HCC-2998 colon = system: HCC-2998 colon
UO-31 renal = system: UO-31 renal
UACC-62 melanoma = system: UACC-62 melanoma
HCT-116 colon = system: HCT-116 colon
NCI/ADR-RES ovarian = system: NCI/ADR-RES ovarian
MDA-MB-435 = system: MDA-MB-435
OVCAR-3 ovarian = system: OVCAR-3 ovarian
ACHN renal = system: ACHN renal
OVCAR-8 ovarian = system: OVCAR-8 ovarian
LOX IMVI melanoma = system: LOX IMVI melanoma
CCRF-CEM leukemia = system: CCRF-CEM leukemia
MDA-MB-231 breast = system: MDA-MB-231 breast
SW-620 colon = system: SW-620 colon
SNB-19 CNS = system: SNB-19 CNS
SK-MEL-2 melanoma = system: SK-MEL-2 melanoma
RPMI-8226 leukemia = system: RPMI-8226 leukemia

Measured: TGI

CCN(CCO)CC1COc2ccccc2O1 (stereo not drawn)
not listed: SW-620 colon | SNB-19 CNS | SK-MEL-2 melanoma | RPMI-8226 leukemia
> 100 µM: all other assays above

COc1ccc(C#CC(=O)O)c(OC)c1
not listed: RXF 393 renal | SF-268 CNS | IGROV1 ovarian | NCI-H522 lung
> 100 µM: all other assays above
